Patent US20130245081A1, “Compositions and Methods for Treating Amyotrophic Lateral Sclerosis” (priority 2009, published 2013)

Columns and labels:
[1] = clinical; details: human, in vivo
Protocol: Pharmacokinetic analyses were based on data from 20 subjects in the 25 mg Q12H (n=8), 75 mg Q12H (n=8), and 150 mg Q12H (n=4) groups.

[2] = clinical; details: for CL/F / Fe / Ue / λz: Day 7, fasted; for CL renal: urine and plasma
Text: A total of 54 subjects (30 subjects in Study CL001 and 24 subjects in Study CL002) were enrolled. Healthy, non-smoking, male and female subjects 30 to 60 years of age, inclusive, with normal or clinically acceptable physical examination and electrocardiogram (ECG) findings, systolic (90 to 140 mmHg) and diastolic (50 to 90 mmHg) blood pressure, and resting heart rate (50 to 100 bpm) who were willing to provide signed, written informed consent were eligible for enrollment. Female volunteers had to be of non-childbearing potential with negative pregnancy test results at screening and clinic check-in. Subjects with any history of neurodegenerative illnesses were excluded. The use of over-the-counter medications within 7 days prior to enrollment or prescription medications within 12 weeks prior to enrollment was prohibited.
In the second study, subjects were enrolled in 3 successive double-blind, placebo-controlled, panels of 8 subjects (n=6 active, n=2 placebo per panel).
Matching placebo capsules contained equivalent weights of microcrystalline cellulose. Capsules were administered orally with water. […] Subjects in the fasted cohorts were required to fast overnight for a minimum of 10 hours before dose administration. Subjects in the food cohort were required to fast overnight for a minimum of 10 hours before dose administration, with exception of the high fat/high calorie meal that was administered 30 minutes prior to drug administration. […] All available safety data were reviewed under blinded conditions to monitor for serious safety or tolerability events prior to proceeding with dose escalations.
In both studies, a complete collection was attempted for each urine sample interval.
Blood samples were collected into a 10 mL dipotassium ethylenediaminetetraacetic acid (K2-EDTA) Vacutainer® via an indwelling peripheral intravenous cannula or by direct venipuncture. Within 15 minutes of collection, the samples were centrifuged at 3000 rpm for 10 minutes at 4° C. After centrifugation, the plasma was divided into 2 aliquots of at least 1.5 mL each, placed into polypropylene containers, frozen, and stored at −20° C. until they were shipped for analysis.
Urine collected in each interval was well mixed, the pH was recorded, the total volume (or the weight and specific gravity) was recorded, and 2 aliquots of 20 mL each were collected into polypropylene containers and stored at −20° C. until they were shipped for analysis. All plasma and urine sample were shipped frozen on dry ice in 2 separate shipments per group (1 set of aliquots per shipment) to Eurofins AvTech Laboratories Inc. (Kalamazoo, Mich.) for bioanalytical analysis.
Plasma and urine concentrations were measured using validated liquid chromatography/mass spectrometry/mass spectrometry (LC/MS/MS) methods. […] The analytical procedure for analysis of plasma samples used a 100 μL aliquot of K2EDTA human plasma. The plasma sample was spiked with 20 μL of working internal standard solution and 20 μL of type 1 water for subject samples and QCs and 20 μL of the appropriate intermediate standard solution for standards. One hundred microliters ([…]) of 50% ammonium hydroxide solution was added to the sample followed by vortex mixing. One milliliter (1 mL) of tertbutyl methyl ether was then added and the sample was vortexed to extract the analyte and internal standard into the organic layer, followed by separation using flash freezing. The organic layer was decanted, evaporated to dryness, and the sample was reconstituted with 0.5 mL of reconstitution solution (0.1% ammonium hydroxide in 50:50 methanol; type 1 water (v/v/v)). A 10 μL aliquot of this reconstituted sample was injected into an LC/MS/MS system for analysis.

[3] = test system: dopamine receptor
[4] = both, human, plasma, oral, 50 mg
[5] = both, human, plasma, oral, 100 mg
[6] = both, human, plasma, oral, 150 mg

CCCN[C@@H]1CCc2nc(N)sc2C1 [dexpramipexole, (6R)-2-amino-4,5,6,7-tetrahydro-6-(propylamino)benzothiazole]
dose linearity of pharmacokinetics [1]: linear | Tmax ([1]; 25 mg): 1.77 h | Tmax ([1]; 75 mg): 1.82 h | Tmax ([1]; 150 mg): 1.7 h | half-life ([1]; 150 mg): 6.63 to 8.73 h | CL/F ([2]; 50 mg Twice Daily): 437 ± 60.8 mL/min | Fe ([2]; 50 mg Twice Daily): 87.2 ± 10.26 % dose | Ue ([2]; 50 mg Twice Daily): 32.5 ± 3.82 mg | λz ([2]; 50 mg Twice Daily): 0.1039 ± 0.0193 h⁻¹ | CL/F ([2]; 100 mg Twice Daily): 510 ± 57.4 mL/min | Fe ([2]; 100 mg Twice Daily): 75.5 ± 3.51 % dose | Ue ([2]; 100 mg Twice Daily): 56.3 ± 2.62 mg | λz ([2]; 100 mg Twice Daily): 0.0893 ± 0.0117 h⁻¹ | CL/F ([2]; 150 mg Twice Daily): 507 ± 74.1 mL/min | Fe ([2]; 150 mg Twice Daily): 89.6 ± 7.83 % dose | Ue ([2]; 150 mg Twice Daily): 100.3 ± 8.76 mg | λz ([2]; 150 mg Twice Daily): 0.0895 ± 0.0184 h⁻¹ | dose recovered in the urine as unchanged parent drug ([2]; 12-hour steady-state dosing period): approximately 84% | AUC(0-t) [2, 4]: 1450 ± 221 ng·h/mL | Cmax at 7 day [2, 4]: 191 ± 20.9 ng/mL | Tmax [2, 4]: 1.75 h | Vd/F [2, 4]: 255 ± 24 L | half-life [2, 4]: 6.87 ± 1.29 h | AUC(0-t) [2, 5]: 2470 ± 304 ng·h/mL | Cmax at 7 day [2, 5]: 306 ± 54.8 ng/mL | Tmax [2, 5]: 2.02 h | Vd/F [2, 5]: 348 ± 61.7 L | half-life [2, 5]: 7.89 ± 1.19 h | AUC(0-t) [2, 6]: 3750 ± 575 ng·h/mL | Cmax [2, 6]: 479 ± 74.6 ng/mL | Tmax [2, 6]: 2.18 h | Vd/F [2, 6]: 349 ± 75.8 L | half-life [2, 6]: 8.05 ± 1.8 h | CL renal ([2]; both, human, oral, 50 mg): 385 ± 90.3 mL/min | CL renal ([2]; both, human, oral, 100 mg): 382 ± 62.7 mL/min | CL renal ([2]; both, human, oral, 150 mg): 451 mL/min | functional affinity difference between pramipexole and dexpramipexole [3]: 10,000-20,000 fold
